test system: HIV-1 (H9IIIB strain); test: Cell-based HIV infection assay using a reporter (Cell-Based), MT4-GFP cells; details: Human immunodeficiency virus 1, MT4-GFP cells infected with HIV-1 H9IIIB; 50% normal human serum; mean of at least two independent experiments; read-out: Cell-based IP
Method in brief: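 MT4-GFP cells (HIV LTR-driven GFP) infected 24 h with HIV-1 H9IIIB at low MOI, then washed and plated with compounds in RPMI + 50% normal human serum, 0.4% DMSO final. Green cells counted at 24 and 48 h; R0 = 48 h/24 h ratio, inhibition normalized to DMSO and triple-drug control; IC50 from 4-parameter fit.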

| Structure (SMILES) | IC50 [nM] |
| --- | --- |
| CC[C@H]1CNC[C@H](CCc2c(F)cccc2NC(=O)[C@@H](N)[C@@H](c2ccc(Cl)cc2)C2CCOCC2)N1S(C)(=O)=O [Example 224, (βR)-4-chloro-N-(2-{2-[(2S,6S)-6-ethyl-1-(methylsulfonyl)piperazin-2-yl]ethyl}-3-fluorophenyl)-β-(tetrahydro-2H-pyran-4-yl)-L-phenylalaninamide] | 90 |
| COC(=O)N[C@H](C(=O)Nc1cccc(F)c1CC[C@H]1CNCC2(CC2)CN1S(=O)(=O)c1ccccc1)[C@@H](c1ccc(Cl)cc1)c1ccc(OC)nc1 [Example 19, Methyl ((1S,2S)-1-(4-chlorophenyl)-3-((3-fluoro-2-(2-((S)-5-phenylsulfonyl)-5,8-diazaspiro[2.6]nonan-6-yl)ethyl)phenylamino)-1-(6-methoxypyridin-3-yl)-3-oxopropan-2-yl)carbamate 2,2,2-trifluoroacetate] | 16 |
| COC(=O)N[C@H](C(=O)Nc1cccc(F)c1CC[C@H]1CNC[C@@H](C)N1S(=O)(=O)C1CC1)[C@@H](c1ccc(Cl)cc1)C(C)C [Example 145, (βR)-4-chloro-N-(2-{2-[(2S,6R)-1-(cyclopropylsulfonyl)-6-methylpiperazin-2-yl]ethyl}-3-fluorophenyl)-Nα-(methoxycarbonyl)-β-(1-methylethyl)-L-phenylalaninamide] | 170 |
| CC(C)[C@H](c1ccc(Cl)cc1)[C@H](N)C(=O)Nc1cccc(F)c1CC[C@H]1CNC[C@H](C)N1S(=O)(=O)c1ccccc1 [Example 109, (βR)-4-chloro-N-(3-fluoro-2-{2-[(2S,6S)-6-methyl-1-(phenylsulfonyl)piperazin-2-yl]ethyl}phenyl)-β-(1-methylethyl)-L-phenylalaninamide] | 65 |
| COC(=O)N[C@H](C(=O)Nc1cccc(F)c1CC[C@H]1CNC[C@H](C)N1S(=O)(=O)C1CC1)[C@@H](c1ccc(Cl)cc1)c1cccc(F)c1 [Example 168, (βS)-4-chloro-N-(2-{2-[(2S,6S)-1-(cyclopropylsulfonyl)-6-methylpiperazin-2-yl]ethyl}-3-fluorophenyl)-β-(3-fluorophenyl)-Nα-(methoxycarbonyl)-L-phenylalaninamide] | 19 |
| O=C(C[C@@H](c1ccc(F)cc1)c1cc(F)cc(F)c1)Nc1cncc(F)c1CC[C@H]1CNCCN1C(=O)CCOc1ccccc1 [Example 348, (3S)-3-(3,5-difluorophenyl)-N-(5-fluoro-4-{2-[(2S)-1-(3-phenoxypropanoyl)piper-azin-2-yl]ethyl}pyridin-3-yl)-3-(4-fluorophenyl)propanamide] | 190 |
| C[C@H]1CNC[C@H](CCc2c(F)cccc2NC(=O)[C@@H](N)[C@@H](c2ccc(Cl)cc2)c2cncc(F)c2)N1S(=O)(=O)c1ccccc1 [Example 236, (βS)-4-chloro-N-(3-fluoro-2-{2-[(2S,6S)-6-methyl-1-(phenylsulfonyl)piperazin-2-yl]ethyl}phenyl)-β-(5-fluoropyridin-3-yl)-L-phenylalaninamide] | 8.2 |
| C[C@@H]1CNC[C@H](CCc2c(F)cccc2NC(=O)[C@@H](N)[C@@H](c2ccc(F)cc2)C2CCOCC2)N1S(=O)(=O)c1ccccc1 [Example 104, (βR)-4-fluoro-N-(3-fluoro-2-{2-[(2S,6R)-6-methyl-1-(phenylsulfonyl)piperazin-2-yl]ethyl}phenyl)-β-(tetrahydro-2H-pyran-4-yl)-L-phenylalaninamide] | 37 |
| N[C@H](C(=O)Nc1cccc(F)c1CC[C@H]1CNCCN1S(=O)(=O)c1ccccc1)[C@@H](c1ccc(Cl)cc1)c1cccc(F)c1 [Example 39, (βS)-4-chloro-β-(3-fluorophenyl)-N-(3-fluoro-2-{2-[(2S)-1-(phenylsulfonyl)piperazin-2-yl]ethyl}phenyl)-L-phenylalaninamide] | 12 |
| C[C@@H]1CNC[C@H](CCc2c(F)cccc2NC(=O)[C@@H](N)[C@H](c2cccc(F)c2)c2cccc(Cl)c2)N1S(=O)(=O)C1CC1 [Example 203, (βR)-3-chloro-N-(2-{2-[(2S,6R)-1-(cyclopropylsulfonyl)-6-methylpiperazin-2-yl]ethyl}-3-fluorophenyl)-β-(3-fluorophenyl)-L-phenylalaninamide] | 620 |
| C[C@H]1CNC[C@H](CCc2c(F)cccc2NC(=O)[C@@H](N)[C@@H](c2ccc(F)cc2)C2CCOCC2)N1S(C)(=O)=O [Example 129, (βR)-4-fluoro-N-(3-fluoro-2-{2-[(2S,6S)-6-methyl-1-(methylsulfonyl)piperazin-2-yl]ethyl}phenyl)-β-(tetrahydro-2H-pyran-4-yl)-L-phenylalaninamide] | 210 |
| O=C(C[C@@H](c1ccc(F)cc1)c1cc(F)cc(F)c1)Nc1cncc(F)c1CC[C@H]1CNCCN1S(=O)(=O)CC(F)(F)F [Example 315, (3S)-3-(3,5-difluorophenyl)-3-(4-fluorophenyl)-N-[5-fluoro-4-(2-{(2S)-1-[(2,2,2-trifluoroethyl)sulfonyl]piperazin-2-yl}ethyl)pyridin-3-yl]propanamide] | 1900 |
| COC(=O)N[C@H](C(=O)Nc1cccc(F)c1CC[C@H]1CNC[C@H](C)N1S(=O)(=O)c1ccccc1)C1(c2cc(F)cc(F)c2)CCOCC1 [Example 286, methyl {(1S)-1-[4-(3,5-difluorophenyl)tetrahydro-2H-pyran-4-yl]-2-[(3-fluoro-2-{2-[(2S,6S)-6-methyl-1-(phenylsulfonyl)piperazin-2-yl]ethyl}phenyl)amino]-2-oxoethyl}carbamate] | 33 |
| COc1ccc([C@H](c2ccc(Cl)cc2)[C@H](N)C(=O)Nc2cccc(F)c2CC[C@H]2CNC[C@H](C)N2S(=O)(=O)c2ccccc2)cn1 [Example 118, (βS)-4-chloro-N-(3-fluoro-2-{2-[(2S,6S)-6-methyl-1-(phenylsulfonyl)piperazin-2-yl]ethyl}phenyl)-β-(6-methoxypyridin-3-yl)-L-phenylalaninamide] | 12 |
| COC(=O)N[C@H](C(=O)Nc1cccc(F)c1CC[C@H]1CNC[C@@H](C)N1S(C)(=O)=O)[C@@H](c1ccc(F)cc1)C1CCOCC1 [Example 146, (βR)-4-fluoro-N-(3-fluoro-2-{2-[(2S,6R)-6-methyl-1-(methylsulfonyl)piperazin-2-yl]ethyl}phenyl)-Nα-(methoxycarbonyl)-β-(tetrahydro-2H-pyran-4-yl)-L-phenylalaninamide] | 72 |
| O=C(C[C@@H](c1ccc(F)cc1)c1cc(F)cc(F)c1)Nc1cncc(F)c1CC[C@H]1CNCCN1S(=O)(=O)NCC(F)CCl (stereo partly drawn) [Example 339, (3S)-N-[4-(2-{(2S)-1-[(3-chloro-2-fluoropropyl)sulfamoyl]piperazin-2-yl}ethyl)-5-fluoropyridin-3-yl]-3-(3,5-difluorophenyl)-3-(4-fluorophenyl)propanamide] | 40 |
| O=C(N[C@H](C(=O)Nc1cncc(F)c1CC[C@H]1CNCCN1S(=O)(=O)C1CC1)[C@@H](c1ccc(F)cc1)c1cc(F)cc(F)c1)C1CC1 [Example 81] | 25 |
| COC(=O)N[C@H](C(=O)Nc1cccc(F)c1CC[C@H]1CNC[C@@H](C)N1S(=O)(=O)c1ccccc1Cl)[C@@H](c1ccc(F)cc1)c1cc(F)cc(F)c1 [Example 232, (βS)-N-[2-(2-{(2S,6R)-1-[(2-chlorophenyl)sulfonyl]-6-methylpiperazin-2-yl}ethyl)-3-fluorophenyl]-β-(3,5-difluorophenyl)-4-fluoro-Nα-(methoxycarbonyl)-L-phenylalaninamide] | 190 |
| O=C(C[C@@H](c1ccc(F)cc1)c1cc(F)cc(F)c1)Nc1cncc(F)c1CC[C@H]1CNCCN1S(=O)(=O)N1CCOCC1 [Example 326, (3S)-3-(3,5-difluorophenyl)-N-(5-fluoro-4-{2-[(2S)-1-(morpholin-4-ylsulfonyl)piperazin-2-yl]ethyl}pyridin-3-yl)-3-(4-fluorophenyl)propanamide] | 8 |
| C[C@H]1CNC[C@H](CCc2c(F)cncc2NC(=O)[C@@H](N)[C@@H](c2ccc(F)cc2)c2cc(F)cc(F)c2)N1S(=O)(=O)c1ccccc1Cl [Example 245, (βS)-N-[4-(2-{(2S,6S)-1-[(2-chlorophenyl)sulfonyl]-6-methylpiperazin-2-yl}ethyl)-5-fluoropyridin-3-yl]-β-(3,5-difluorophenyl)-4-fluoro-L-phenylalaninamide] | 51 |
| CC1(C)CC([C@H](c2ccc(Cl)cc2)[C@H](N)C(=O)Nc2cccc(F)c2CC[C@H]2CNCCN2S(=O)(=O)c2ccccc2)CC(C)(C)O1 [Example 75, (βR)-4-chloro-N-(3-fluoro-2-{2-[(2S)-1-(phenylsulfonyl)piperazin-2-yl]ethyl}phenyl)-β-(2,2,6,6-tetramethyltetrahydro-2H-pyran-4-yl)-L-phenylalaninamide] | 150 |
| C[C@H]1CNC[C@H](CCc2c(F)cccc2NC(=O)[C@@H](N)[C@@H](c2ccc(F)cc2)c2cc(F)cc(F)c2)N1S(=O)(=O)c1ccccc1 [Example 97, (βS)-β-(3,5-difluorophenyl)-4-fluoro-N-(3-fluoro-2-{2-[(2S,6S)-6-methyl-1-(phenylsulfonyl)piperazin-2-yl]ethyl}phenyl)-L-phenylalaninamide] | 25 |

same assay, conditions: MT4-GFP cells infected with HIV-1 H9IIIB; 50% normal human serum; mean of at least two independent experiments; read-out: Cell-based IP

| Structure (SMILES) | IC50 [nM] |
| --- | --- |
| CN(CC1CC1)S(=O)(=O)N1CCNC[C@@H]1CCc1c(F)cccc1NC(=O)[C@@H](N)C(c1ccc(F)cc1)c1ccc(F)cc1 [Example 69] | 360 |
| O=C(C[C@@H](c1ccc(F)cc1)c1cc(F)cc(F)c1)Nc1cncc(F)c1CC[C@H]1CNCCN1S(=O)(=O)N1CC[C@@H](F)C1 [Example 328, (3S)-3-(3,5-difluorophenyl)-N-(5-fluoro-4-{2-[(2S)-1-{[(3S)-3-fluoropyrrolidin-1-yl]sulfonyl}piperazin-2-yl]ethyl}pyridin-3-yl)-3-(4-fluorophenyl)propanmide] | 16 |
| N[C@H](C(=O)NC1CC(F)(F)CC1CC[C@H]1CNCCN1S(=O)(=O)c1ccccc1)[C@H](c1ccc(Cl)cc1)C1CCOCC1 (stereo partly drawn) [Example 361, (betaS)-4-hcloro-N-(4,4-difluoro-2-{2-[(2S)-1-(phenylsulfonyl)piperazin-2-yl]ethyl}cyclopentyl)-beta-(tetrahydro-2H-pyran-4-yl)-L-phenylalaninamide] | 880 |

From patent US9840478B2 (MERCK SHARP & DOHME CORP., priority 2013, dated 2017)
